{"source": "patent US20220096602A1", "about": "“LIF THERAPY FOR INDUCING INTESTINAL EPITHELIAL CELL REGENERATION” (Rutgers, the State University of New Jersey, priority 2019, published 2022)", "key": {"[1]": {"system": "LIF KO intestinal organoids", "assay": "Intestinal organoid culture: growth and proliferation of LIF KO organoids", "assay_type": "cell-based, mouse", "details": "for stem cell number in LIF KO organoids: organoids from LIF KO, Lgr5-GFP mouse crypts; for growth and proliferation of LIF KO organoids: Stattic 2 μM, SB242235 1 μM", "procedure": "(§1) Crypt isolation and organoid culture were performed as described previously (Nan Gao's paper, 2015, Development). Crypts were isolated from the mouse small intestine. 150-200 crypts were embedded in growth factor-reduced Matrigel and cultured with mouse ENR organoid culture medium containing 1×B27 (Life Tech Gibco), 1×N2 (Life Tech Gibco), 1 mM N-acetylcysteine (Sigma), 50 ng/ml of EGF (Life Technology), 100 ng/ml of Noggin (R&D System), and 1 μg/ml of R-spondin 1 (R&D system). Recombinant mouse LIF (Millipore), wortmannin (Cell Signaling Technology) and CHIR99021 (Stemgent) were used for organoid treatment.\n(§2) The size organoid was evaluated by quantify surface area of horizontal cross section of organoids acquired from multiple random non-overlapping pictures by an Olympus inverted microscope using ImageJ software. The vertical direction of expansion was not included in the calculations. n≥30/group. The percentages of budding organoids were analyzed by light microscopy at different days during organoid culture. n≥100/group.\n(§3) IF staining of organoids was performed as previously described (Gao and Kaestner, 2010). In brief, organoids were fixed with 4% paraformaldehyde for 10 min, treated with 0.5% TritonX-100 for 10 min and blocked with 10% goat serum in IF buffer (0.1% BSA, 0.2% Triton X100, 0.05% Tween-20, 0.05% NaN3 in PBS) for 2 hours. Organoids were incubated with anti-Ki67 (Abcam, ab16667, 1:200 dilution) and anti-GFP (Abcam, ab6673, 1:1000 dilution) antibodies overnight at room temperature and then incubated with Alexa Fluor® 555 Goat Anti-Rabbit IgG (H+L) (Invitrogen, 1:800 dilution) and Alexa Fluor® 488 Donkey Anti-Goat IgG (H+L) (Invitrogen, 1:200 dilution), respectively to detect Ki67 and Lgr5-EGFP. Nuclei were stained with 4′, 6-diamidino-2-phenylindole (DAPI; Vector)."}, "WT intestinal organoids": {"system": "WT intestinal organoids", "assay": "Intestinal organoid culture: growth and proliferation of WT organoids", "assay_type": "cell-based, mouse", "details": "for stem cell number in WT organoids: organoids from WT, Lgr5-GFP mouse crypts; for growth and proliferation of WT organoids: Stattic 2 μM, SB242235 1 μM; for effect on ISC functions in WT organoids: blocking STAT3 or MAPK activity", "procedure": "as §1, §2, §3"}, "[2]": {"system": "β-catenin target genes Axin2, Ascl1, Olfm4 and Lgr5", "assay": "Quantitative real-time PCR of β-catenin target genes in organoids", "assay_type": "cell-based, mouse", "details": "normalized with β-actin", "procedure": "Total RNA from mice small intestine tissues or organoids was prepared by using an RNeasy kit (Qiagen). Quantitative real-time PCR assays were performed as described previously. The expression of genes was normalized with the β-actin gene. Data was obtained from 5 independent biological samples with 3 technical replicates. To investigate whether LIF regulates ISC function through upregulating the AKT signaling, WT and LIF KO organoids were treated with Wortmannin, a PI3K inhibitor that inhibits the PI3K/Akt signaling, and Capivasertib, a specific AKT inhibitor (31, 32). […] Further, we directly examined the effects of Capivasertib and SC79 on β-catenin activity by measuring the mRNA levels of its target genes in WT and LIF KO organoids. […] We further treated organoids formed by WT or LIF KO; Lgr5-GFP mouse crypts with Wortmannin, Capivasertib or SC79. […] We further examined whether blocking GSK3β can improve the growth of LIF KO organoids."}, "intestinal epithelium": {"system": "intestinal epithelium", "assay": "Regeneration of intestinal epithelium after irradiation in inducible LIF-tgflox/+/Cre-ERT2 mice", "assay_type": "in vivo, mouse", "details": "tamoxifen-induced LIF expression; i.p. 3 days before 12 Gy IR; 72 h after irradiation", "procedure": "Eight-twelve-week-old male and female LIF-tg^flox/+/Cre-ERT2 mice were injected (i.p.) with tamoxifen ([…] body weight for male and […] body weight for female) to induce LIF expression 3 days before irradiation (D-3). Age- and gender-matched LIF-tg^flox/+/Cre-ERT2 mice were injected with corn oil as control on D-3. On D0 mice were subject to 12 Gy-whole-body irradiated. Mouse intestine tissue was collected at 72 h after irradiation (D3). The levels of Ki67 in intestinal epithelium were determined by immunohistochemistry (IHC) staining. n=6 in Tamoxifen treated group, n=4 in control group."}, "[3]": {"biological_target": "T1, gp130 (LIF:LIFR:gp130 complex) (Homo sapiens, UniProt P40189+P42702)", "T1 sequence (P40189 23-918)": "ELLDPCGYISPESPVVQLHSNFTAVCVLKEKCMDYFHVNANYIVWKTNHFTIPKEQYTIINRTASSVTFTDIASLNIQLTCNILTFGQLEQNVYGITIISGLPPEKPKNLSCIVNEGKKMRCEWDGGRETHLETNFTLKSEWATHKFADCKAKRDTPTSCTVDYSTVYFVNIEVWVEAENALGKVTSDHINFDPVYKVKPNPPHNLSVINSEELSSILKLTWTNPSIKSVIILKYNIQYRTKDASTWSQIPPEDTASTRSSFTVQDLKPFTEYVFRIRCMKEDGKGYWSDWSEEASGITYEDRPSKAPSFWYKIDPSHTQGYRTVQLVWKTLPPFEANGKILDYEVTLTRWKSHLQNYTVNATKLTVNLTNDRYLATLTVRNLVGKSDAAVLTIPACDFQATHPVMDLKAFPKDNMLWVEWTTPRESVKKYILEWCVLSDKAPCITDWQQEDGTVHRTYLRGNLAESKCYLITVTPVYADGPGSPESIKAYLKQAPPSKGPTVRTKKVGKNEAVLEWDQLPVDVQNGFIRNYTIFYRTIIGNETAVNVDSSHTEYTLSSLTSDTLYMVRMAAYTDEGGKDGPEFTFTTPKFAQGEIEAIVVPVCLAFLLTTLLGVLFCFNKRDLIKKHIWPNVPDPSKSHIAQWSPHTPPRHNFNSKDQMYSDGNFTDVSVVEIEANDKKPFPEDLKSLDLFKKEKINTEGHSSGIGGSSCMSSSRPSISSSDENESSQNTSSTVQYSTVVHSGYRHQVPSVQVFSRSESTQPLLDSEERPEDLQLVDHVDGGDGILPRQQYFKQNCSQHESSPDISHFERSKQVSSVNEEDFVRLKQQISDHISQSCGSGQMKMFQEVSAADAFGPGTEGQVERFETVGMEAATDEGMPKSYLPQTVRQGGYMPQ", "T1 sequence (P42702 45-1097)": "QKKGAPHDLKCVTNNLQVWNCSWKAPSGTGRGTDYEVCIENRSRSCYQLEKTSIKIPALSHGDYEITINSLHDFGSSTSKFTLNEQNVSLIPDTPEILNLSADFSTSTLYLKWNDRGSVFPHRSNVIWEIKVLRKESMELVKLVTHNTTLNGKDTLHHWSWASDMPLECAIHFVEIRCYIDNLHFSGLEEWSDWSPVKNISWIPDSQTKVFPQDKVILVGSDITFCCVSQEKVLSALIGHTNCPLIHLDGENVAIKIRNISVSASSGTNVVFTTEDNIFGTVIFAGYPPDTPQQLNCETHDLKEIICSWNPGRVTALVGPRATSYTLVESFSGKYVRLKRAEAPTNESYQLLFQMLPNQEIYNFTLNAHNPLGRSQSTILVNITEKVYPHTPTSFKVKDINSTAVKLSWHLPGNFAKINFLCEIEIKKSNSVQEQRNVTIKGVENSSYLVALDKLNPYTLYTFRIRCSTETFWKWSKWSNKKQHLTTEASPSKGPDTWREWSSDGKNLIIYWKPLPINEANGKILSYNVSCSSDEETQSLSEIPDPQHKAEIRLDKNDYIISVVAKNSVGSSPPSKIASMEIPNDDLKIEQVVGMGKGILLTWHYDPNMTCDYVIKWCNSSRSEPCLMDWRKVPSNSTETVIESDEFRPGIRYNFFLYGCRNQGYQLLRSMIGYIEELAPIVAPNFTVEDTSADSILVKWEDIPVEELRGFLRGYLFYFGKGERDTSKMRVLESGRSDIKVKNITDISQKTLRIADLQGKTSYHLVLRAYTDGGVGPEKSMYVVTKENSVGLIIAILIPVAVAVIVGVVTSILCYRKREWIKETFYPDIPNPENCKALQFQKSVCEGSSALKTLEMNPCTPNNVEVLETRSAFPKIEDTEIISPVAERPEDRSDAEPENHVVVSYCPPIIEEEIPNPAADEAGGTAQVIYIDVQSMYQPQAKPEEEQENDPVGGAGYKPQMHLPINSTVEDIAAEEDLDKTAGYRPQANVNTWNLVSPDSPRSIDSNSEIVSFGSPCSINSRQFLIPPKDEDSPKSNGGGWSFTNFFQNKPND", "details": "after binding to LIFR; cited from earlier work"}, "LIF receptor (LIFR)": {"biological_target": "T2, LIF receptor (LIFR) (Homo sapiens, UniProt P42702)", "T2 sequence (P42702 45-1097)": "T1 sequence (P42702 45-1097)", "details": "cited from earlier work"}, "[4]": {"details": "patients with advanced cancers; cited from earlier work"}, "[5]": {"details": "single s.c. dose, up to doses of 4 μg/kg, healthy volunteers; cited from earlier work"}}}
{"compound": "Cc1c[nH]c(-c2cnc(NCCNc3ccc(C#N)cn3)nc2-c2ccc(Cl)cc2Cl)n1", "note": "[CHIR99021]", "values": [{"measurement": "growth, cell proliferation and stem cell number of LIF KO organoids", "setting": "[1]; CHIR99021 3 μM", "result": "greatly improved"}, {"measurement": "growth, cell proliferation and stem cell number of WT organoids", "setting": "WT intestinal organoids; CHIR99021 3 μM, compared with LIF KO organoids", "result": "much less pronounced effect"}]}
{"compound": "NC1(C(=O)N[C@@H](CCO)c2ccc(Cl)cc2)CCN(c2ncnc3[nH]ccc23)CC1", "note": "[Capivasertib]", "values": [{"measurement": "rescue effect of recombinant LIF on the growth of LIF KO organoids", "setting": "[1]; inhibitor 1 μM with LIF 50 ng/ml", "result": "largely abolished"}, {"measurement": "inhibitory effects on organoid growth and cell proliferation in LIF KO organoids", "setting": "[1]; inhibitor 1 μM, compared with WT organoids", "result": "much less pronounced"}, {"measurement": "stem cell number in LIF KO organoids", "setting": "[1]", "result": "much less pronounced inhibitory effect"}, {"measurement": "growth of WT organoids and cell proliferation (surface area, organoid formation, Ki67+ cells)", "setting": "WT intestinal organoids; inhibitor 1 μM, WT organoids", "result": "greatly inhibited"}, {"measurement": "stem cell number in WT organoids", "setting": "WT intestinal organoids", "result": "greatly decreased"}, {"measurement": "mRNA levels of Axin2, Ascl1, Olfm4 and Lgr5 in LIF KO organoids", "setting": "[2]", "result": "less pronounced effect"}, {"measurement": "mRNA levels of Axin2, Ascl1, Olfm4 and Lgr5 in WT organoids", "setting": "[2]", "result": "significantly decreased"}]}
{"compound": "COc1nccc(-c2c(-c3ccc(F)cc3)ncn2C2CCNCC2)n1", "note": "[SB242235]", "values": [{"measurement": "growth and proliferation of LIF KO organoids", "setting": "[1]", "result": "did not have a significant effect"}, {"measurement": "growth and proliferation of WT organoids", "setting": "WT intestinal organoids", "result": "did not have a significant effect"}, {"measurement": "effect on ISC functions in WT organoids", "setting": "WT intestinal organoids", "result": "no obvious effect"}]}
{"compound": "CCOC(=O)C1=C(N)Oc2ccc(Cl)cc2C1C(C#N)C(=O)OCC", "note": "(stereo not shown) [SC79]", "values": [{"measurement": "growth and cell proliferation of LIF KO organoids", "setting": "[1]; SC79 5 μM", "result": "greatly improved"}, {"measurement": "stem cell number in LIF KO organoids", "setting": "[1]", "result": "greatly increased"}, {"measurement": "growth and cell proliferation of WT organoids", "setting": "WT intestinal organoids; SC79 5 μM, compared with LIF KO organoids", "result": "less pronounced effect"}, {"measurement": "stem cell number in WT organoids", "setting": "WT intestinal organoids", "result": "less pronounced effect"}, {"measurement": "mRNA levels of Axin2, Ascl1, Olfm4 and Lgr5 in LIF KO organoids", "setting": "[2]", "result": "greatly increased"}, {"measurement": "mRNA levels of Axin2, Ascl1, Olfm4 and Lgr5 in WT organoids", "setting": "[2]", "result": "less pronounced effect"}]}
{"compound": "O=[N+]([O-])c1ccc2c(c1)S(=O)(=O)C=C2", "note": "[Stattic]", "values": [{"measurement": "growth and proliferation of LIF KO organoids", "setting": "[1]", "result": "did not have a significant effect"}, {"measurement": "growth and proliferation of WT organoids", "setting": "WT intestinal organoids", "result": "did not have a significant effect"}, {"measurement": "effect on ISC functions in WT organoids", "setting": "WT intestinal organoids", "result": "very limited effect"}]}
{"compound": "CC/C(=C(\\c1ccccc1)c1ccc(OCCN(C)C)cc1)c1ccccc1", "note": "[tamoxifen]", "values": [{"measurement": "intestinal crypt regeneration (viable crypts), higher than controls", "setting": "intestinal epithelium", "result": "~50", "unit": "%"}]}
{"compound": "human LIF: Human canonical LIF, accession number P15018, SEQ ID NO: 1", "values": [{"measurement": "affinity of functional signaling complex with gp130", "setting": "[3]", "result": "picomolar"}, {"measurement": "affinity of binding to LIFR", "setting": "LIF receptor (LIFR)", "result": "low nanomolar"}]}
{"compound": "rhLIF: Emfilermin is the term used for rhLIF produced in Escherichia coli", "values": [{"measurement": "adverse effects on blood progenitor cells", "setting": "[4]", "result": "no adverse effects"}, {"measurement": "hematopoietic recovery after chemotherapy", "setting": "[4]", "result": "normal"}, {"measurement": "safety of administration", "setting": "[4]", "result": "safely administered"}, {"measurement": "safety and tolerability", "setting": "[5]", "result": "safe and well tolerated"}]}
